Measured values taken from paper PMC7853623, “Dose- and time-dependent tolerability and efficacy of organo-osmium complex FY26 and its tissue pharmacokinetics in hepatocarcinoma-bearing mice” (Metallomics: Integrated Biometal Science, 2020).

Assays:
[1] = test system: Hepa1–6-Per2-luc hepatocarcinoma tumours; experiment: Tumour volume after a single ip dose (Experiment 5); type: in vivo, C57Bl/6 mice; conditions: single ip dose 5, 10 or 20 mg/kg (FY26⋅Cl)
Description: (§1) The mice, aged 8–10 weeks, were anesthetized under isoflurane and Hepa1–6-Per2-luc cells were injected subcutaneously in both postero-lateral flanks of each mouse. Mice were then inspected and weighed daily until experiment completion. Tumour sites were inspected daily until tumours became palpable and amenable to daily measurements of perpendicular diameters using callipers. Measurements were always taken at the same circadian time.
(§2) Mean daily tumour weight per mouse was calculated as the average volume of the right and left flank tumours according to (L × W^2)/2, where L is the larger and W the smaller perpendicular diameter, and 1 cm^3 corresponds to 1 g. Mice with an estimated tumour weight exceeding 10% of their body weight or those in poor general condition or loosing >15% of their starting body weight were euthanized, in compliance with our Home Office Project Licence specifications approved by the Animals in Science Committee and Animal Welfare and Ethical Review Body.
Experiment 5 determined FY26⋅Cl uptake in mouse tumour and liver. Hepa1–6-bearing mice were randomly assigned to either treatment or control groups. They received a single ip injection of 5, 10, or 20 mg/kg of FY26⋅Cl or 0.1 M PBS (vehicle) at ZT6 (Table 1). The mice from pre-set subgroups were culled at 6, 24, or 48 h after injection. […]

[2] = Tolerability (survival, body weight) in Hepa1–6-bearing C57Bl/6 mice (Experiments 3 and 4); type: in vivo; conditions: Experiment 4 (FY26⋅Cl)
Description: (§3) Male CD1-Foxn1^nu or C57Bl/6 (B6) mice aged 5–10 weeks (Janvier, Le Genest St Isle, France) were housed in groups of three to four mice per cage in temperature-controlled (23 ± 1°C), ventilated (100 ± 10 l/min), and light-tight chronobiological animal facilities (Eurobioconcept, Bonneuil s/Marne, France). They were synchronized with an alternation of 12 h of light (L) and 12 h of darkness (D) (LD12:12), with light starting at 07:00, and had ad libitum access to food and water throughout all the experiments. In line with convention, onset of light and that of darkness are referred to as Zeitgeber time 0 (ZT0) and ZT12, respectively. After one or more weeks on this regimen and on the day prior to tumour inoculation, both flanks of each B6 mouse were shaved using clippers.
as §1, §2
Experiment 3 aimed at assessing the efficacy and tolerability of the more soluble formulation of FY26⋅Cl in Hepa1–6-bearing C57Bl/6 mice. The mice were randomized to receive vehicle or FY26⋅Cl, at a cumulative dose of 60 mg/kg. Treated mice received ip injections of 20 mg/kg of FY26⋅Cl at ZT6 12, 14, and 17 days after tumour inoculation. Control mice received ip vehicle on the same days.
Experiment 4 aimed at confirming efficacy and optimizing timing and scheduling of the same cumulative dose of 60 mg/kg of FY26⋅Cl. Mice were randomized to receive either vehicle or FY26⋅Cl as four injections of 15 mg/kg at ZT6 or ZT18 on days 11, 14, 17, and 21.
For Experiments 1 and 2, FY26⋅PF6 was diluted in the vehicle, composed of 1% Tween 80 (Sigma-Aldrich, Gillingham, UK), 5% DMSO (Corning, New York, USA) and 94% of 0.9% saline (Prep room, Life Sciences, University of Warwick) under laminar flow. FY26⋅PF6 concentration was confirmed with ICP-MS. For Experiments 3–5, using FY26⋅Cl, a stock solution of 50 mg/ml FY26⋅Cl was prepared in 0.9% saline on the day of injection and diluted as required; the vehicle consisted of 0.9% saline.
(§4) Body weight data were expressed as % body weight measured on the first treatment day. Tumour weights for individually treated mice were expressed as % of the median control values, in order to determine % inhibition. Mean and standard error or median and interquartiles were computed for the different treatment groups and experimental conditions, i.e. drug timing and day of assessment. Groups were compared using parametric or non-parametric ANOVAs, respectively.

[3] = Body weight change after a single ip dose (Experiment 5); type: in vivo, C57Bl/6 mice; conditions: single ip dose 5, 10 or 20 mg/kg (FY26⋅Cl), 24 and 48 h, all mice
Description: Experiment 5 determined FY26⋅Cl uptake in mouse tumour and liver. Hepa1–6-bearing mice were randomly assigned to either treatment or control groups. They received a single ip injection of 5, 10, or 20 mg/kg of FY26⋅Cl or 0.1 M PBS (vehicle) at ZT6 (Table 1). The mice from pre-set subgroups were culled at 6, 24, or 48 h after injection. The subcutaneous tumours in both flanks, as well as liver, spleen, one kidney, an ileum, and a colon segment and brain were sampled and stored at −80°C.
as §4

[4] = set-up: method as in PMID 20977192; conditions: 24 h incubation at 37°C, pH 7.4 ref 12; cited from earlier work
[5] = set-up: method as in ref 22 = [22]; 22. Abraham K. , In vitro and in vivo chronopharmacology of a new generation of an organometallic anticancer drug complex . Ph.D. thesis , University of Warwick , Coventry, UK , 2018 .; conditions: mice ref 22; cited from earlier work
[6] = Comparative maximum aqueous solubility study (ICP-OES); type: physicochemical; conditions: doubly deionized water, 24 h shaking, ambient 18–20°C, mean ± SD of N = 3
Description: One to five milligrams of FY26⋅PF6 or FY26⋅I, and 180 mg of FY26⋅Cl were dispensed into Falcon tubes in triplicates, then 1 ml of doubly deionized water (DDIW) was added. The Falcon tubes were placed on a Vibrax VXB basic shaker (Sigma-Aldrich, Dorset, UK) for 24 h at a speed of […] (ambient temperature 18–20°C), and were checked at intervals (further solids were added if total saturation appeared to occur). The samples were filtered through syringe filters (PTFE, 0.45 µm, 4 mm) to remove any undissolved solids. The concentrations of Os in the solutions were measured using inductively coupled plasma-optical emission spectroscopy (ICP-OES) (Agilent, Stockport, UK).
Analyses of FY26 solutions were carried out on a Perkin-Elmer (optical emission spectrometer) Optima 5300 DV instrument. All samples and standards were prepared fresh on the day in DDIW with distilled HNO3 (3.2%), thiourea (5 mM), and ascorbic acid (0.1 g/l). The osmium standard was diluted to the following concentrations for the calibration curve: 0, 25, 50, 100, 200, 400, 600, 800, and 1000 ppb. The samples were diluted by serial dilutions of typically 1 in 10 until their concentrations fitted within the calibration range and % total dissolved solids were below 0.2%. Samples were prepared in triplicates and the Os optical emissions at 228.226 and 225.585 nm were detected and integrated.

[7] = test system: 809 cancer cell line screen; set-up: method as in PMID 26162681; conditions: on average, 809 cancer cell lines ref 18; cited from earlier work
[8] = test system: HCT-116 human colon cancer xenografts; set-up: method as in ref 13 = [13]; 13. Shnyder S. D. , Fu Y. , Habtemariam A. , van Rijt S. H. , Cooper P. A. , Loadman P. M. , Sadler P. J. , Anti-colorectal cancer activity of an organometallic osmium arene azopyridine complex , Med.; conditions: HCT-116 xenografts in mice ref 13; cited from earlier work
Hepa1–6 cells = test system: Hepa1–6 cells; set-up: method as in ref 21, 22 = [21]; 21. Abraham K. , Dallmann R. , Ballesta A. , Romero-Canelon I. , Sadler P. J. , Lévi F. A. , In v itro circadian synchronisation of mouse hepatocarcinoma cells with 24 h temperature cycles uncovers in || [22]; 22. Abraham K. , In vitro and in vivo chronopharmacology of a new generation of an organometallic anticancer drug complex . Ph.D. thesis , University of Warwick , Coventry, UK , 2018 .; conditions: Hepa1–6 cells synchronized with a 24-h periodic temperature cycle ref 21, 22; cited from earlier work
[9] = test system: A2780 ovarian cancer cells over MRC-5 fibroblasts; set-up: method as in PMID 26397305; conditions: applied synergistically with L-buthionine sulfoximine (L-BSO) ref 19; cited from earlier work
A2780 cells = test system: A2780 cells; set-up: method as in PMID 26162681; conditions: previously reported ref 18; cited from earlier work
[10] = Tolerability in Hepa1–6-bearing nude mice (Experiments 1 and 2); type: in vivo, CD1-Foxn1^nu mice
Description: as §3, §1, §2
Experiment 1 aimed at the determination of a therapeutic dose of the less soluble FY26⋅PF6 formulation. […]
(§5) Body weight data were expressed as % body weight measured on the first treatment day. Tumour weights for individually treated mice were expressed as % of the median control values, in order to determine % inhibition. […]

[11] = test system: Hepa1–6-Per2-luc hepatocarcinoma tumours; experiment: Antitumour efficacy in Hepa1–6-bearing nude mice (Experiments 1 and 2); type: in vivo, CD1-Foxn1^nu mice
Description: as §3
Mouse hepatocarcinoma (Hepa1–6, ATCC® CRL-1830™) was kindly provided by S. Dulong (INSERM U935, Villejuif, France), following their stable transfection with the Per2-luc [pLV7-Bsd-P(Per2)-dLuc] reporter constructs within the C5SYS ERASYSBIO+ project (FP7). Mouse Hepa1–6-Per2-luc cells were cultured in 15-cm Petri dishes until they reached 80% confluency. On the day of tumour inoculation, the cells were trypsinized and resuspended at a concentration of 10^6 cells/100 µl in PBS solution alone (Experiments 1 and 2) or with 1:1 MatriGel™ (Corning, Flintshire, UK) (Experiments 3–5) and kept on ice until injected.
as §1, §2
Experiment 1 aimed at the determination of a therapeutic dose of the less soluble FY26⋅PF6 formulation. Hepa1–6-bearing nude mice were randomly assigned to be injected intraperitoneally (ip) with vehicle (controls), or 40, 60, or 80 mg/kg/injection of FY26⋅PF6 at ZT6 (in the middle of the light span) every other day for 12 days (Table 1).
Experiment 2 aimed at assessing whether FY26⋅PF6 circadian timing would influence toxicity or efficacy in the nude mouse model. The animals were randomly assigned to receive ip vehicle or FY26⋅PF6 (50 mg/kg/injection) at ZT6 or at ZT18 (four controls and six treated mice per ZT) every other day for 11 days (six injections; cumulative dose, 300 mg/kg). […]
as §5

[12] = set-up: method as in PMID 9144445; conditions: cisplatin in BSO-treated mice ref 36; cited from earlier work

CN(C)c1ccc(N=Nc2ccccn2)cc1.Cc1ccc(C(C)C)cc1.[I-].[Os+2] [FY26, [Os^II(ɳ^6-p-cym)(PhAzPy-NMe2)I]^+]
changes in tumour volumes [1]: No changes
body-weight loss according to dosing time ([2]; 15 mg/kg ip × 4, ZT18 versus ZT6): clearly worse at ZT18
survival rate ([2]; 15 mg/kg ip × 4 at ZT6): 60%
survival rate ([2]; 15 mg/kg ip × 4 at ZT18): 30%
body weight changes [3]: < 5%
hydrolysis in aqueous solution [4]: does not readily hydrolyse
best-tolerated dosing time [5]: near the middle of the light span

CN(C)c1ccc(N=Nc2ccccn2)cc1.Cc1ccc(C(C)C)cc1.[I-].[I-].[Os+2] [FY26⋅I]
maximum aqueous solubility [6]: 1.29 (±0.01) mM

CN(C)c1ccc(N=Nc2ccccn2)cc1.Cc1ccc(C(C)C)cc1.F[P-](F)(F)(F)(F)F.[I-].[Os+2] [FY26⋅PF6, [Os^II(ɳ^6-p-cym)(PhAzPy-NMe2)I]PF6]
activity relative to cisplatin [7]: 49 times
effect on xenograft growth [8]: capable of delaying the growth
variation of IC50 according to timing of in vitro drug exposure (Hepa1–6 cells): 40%
selectivity towards A2780 over MRC-5 fibroblasts [9]: up to 64 times
ROS induction (A2780 cells): did induce an increase in ROS
induction of apoptosis (A2780 cells): did not induce apoptosis
toxicity of the higher dose ([10]; Experiment 1, 80 mg/kg/injection, all mice euthanized after up to five injections (cumulative 400 mg/kg)): clearly too toxic
body weight loss dose–response ([10]; Experiment 1, 40, 60 or 80 mg/kg/injection ip at ZT6): linear dose–response relation
body-weight loss at ZT6 as compared to ZT18 ([10]; Experiment 2, 50 mg/kg/injection ip): less pronounced
tumour inhibition efficacy ranking ([11]; Experiment 1, 40 mg/kg/injection ip at ZT6 every other day): intermediate
tumour inhibition efficacy ranking ([11]; Experiment 1, 60 mg/kg/injection ip at ZT6 every other day): least
tumour inhibition efficacy ranking ([11]; Experiment 1, 80 mg/kg/injection ip at ZT6 every other day): highest
efficacy according to dosing time ([11]; Experiment 2, 50 mg/kg/injection ip, ZT6 versus ZT18): slightly better efficacy at ZT6
tumour growth ([11]; Experiment 2, 50 mg/kg/injection ip, after the sixth dose): slowed down transiently
maximum aqueous solubility [6]: 0.0201 (±0.0007) mM

N.N.[Cl][Pt][Cl] [cisplatin]
reduction in average survival rate [12]: 5.7 fold
